Target: T1, recombinant form of human aromatase (Homo sapiens, UniProt P11511)
T1 construct: gene CYP19A1; purified recombinant; assayed with equimolar human CPR; with NADPH--cytochrome P450 reductase
T1 sequence (P11511 1-503): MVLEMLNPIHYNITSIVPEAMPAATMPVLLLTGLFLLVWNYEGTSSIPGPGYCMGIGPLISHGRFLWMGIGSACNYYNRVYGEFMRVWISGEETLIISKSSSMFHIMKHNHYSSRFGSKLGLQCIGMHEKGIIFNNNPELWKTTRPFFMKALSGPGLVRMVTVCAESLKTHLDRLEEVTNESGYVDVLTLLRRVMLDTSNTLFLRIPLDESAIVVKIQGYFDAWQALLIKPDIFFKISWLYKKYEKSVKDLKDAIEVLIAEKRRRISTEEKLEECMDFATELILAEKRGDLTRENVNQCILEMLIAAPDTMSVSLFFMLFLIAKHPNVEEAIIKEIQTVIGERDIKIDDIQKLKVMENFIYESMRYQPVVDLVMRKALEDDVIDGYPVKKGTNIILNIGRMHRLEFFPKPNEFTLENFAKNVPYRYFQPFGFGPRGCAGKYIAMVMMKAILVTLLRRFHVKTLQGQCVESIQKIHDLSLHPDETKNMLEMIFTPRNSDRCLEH
T1 sequence (P16435 2-677 partner): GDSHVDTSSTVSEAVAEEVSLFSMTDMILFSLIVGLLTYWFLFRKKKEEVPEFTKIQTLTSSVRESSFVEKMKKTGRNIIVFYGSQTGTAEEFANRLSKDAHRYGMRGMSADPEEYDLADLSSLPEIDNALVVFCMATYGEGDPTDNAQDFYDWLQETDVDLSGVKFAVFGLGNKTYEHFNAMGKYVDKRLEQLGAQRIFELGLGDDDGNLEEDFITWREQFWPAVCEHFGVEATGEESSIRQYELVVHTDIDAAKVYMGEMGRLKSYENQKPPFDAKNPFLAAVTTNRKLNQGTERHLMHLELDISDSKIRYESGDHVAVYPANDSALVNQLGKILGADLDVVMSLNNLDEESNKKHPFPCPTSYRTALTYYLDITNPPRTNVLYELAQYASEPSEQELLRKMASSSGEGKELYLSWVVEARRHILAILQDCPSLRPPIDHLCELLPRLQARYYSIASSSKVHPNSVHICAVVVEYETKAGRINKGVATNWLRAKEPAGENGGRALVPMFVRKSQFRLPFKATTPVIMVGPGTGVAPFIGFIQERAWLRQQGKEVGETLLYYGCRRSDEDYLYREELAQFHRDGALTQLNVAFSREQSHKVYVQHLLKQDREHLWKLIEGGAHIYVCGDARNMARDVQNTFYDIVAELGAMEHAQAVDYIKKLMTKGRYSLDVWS
Test: estrone ELISA of aromatase reaction
Type: biochemical
Conditions: read-out: Relative Activity (% of C+) / 5 × 10^-6 M
Text: estrone ELISA of aromatase reaction on recombinant form of human aromatase

`C/C(=N\C#N)N(C)Cc1ccc(Cl)nc1` [Acetamiprid] showed an activity at 5 µM of 87.5 ± 17.6%.

`CN/C(=N\[N+](=O)[O-])NCc1cnc(Cl)s1` [Clothianidin] showed an activity at 5 µM of 97.9 ± 5.2%.

Compound `CNC(=O)Oc1cc(C)c(SC)c(C)c1` [Methiocarb] has an activity at 5 µM of 90.9 ± 5.4%.

`CC(C)Oc1cc(-n2nc(C(C)(C)C)oc2=O)c(Cl)cc1Cl` [Oxadiazon] was tested, and the activity at 5 µM was 101 ± 16.7%.

Compound `CN1COCN(Cc2cnc(Cl)s2)C1=N[N+](=O)[O-]` [Thiamethoxam] has an activity at 5 µM of 95.6 ± 17.1%.

From publication PMC8871760, “Assessment of Five Pesticides as Endocrine-Disrupting Chemicals: Effects on Estrogen Receptors and Aromatase” (International Journal of Environmental Research and Public …, 2022)
